# Biological target: PRS (prolyl-tRNA synthetase) protein, PRS portion of EPRS (Homo sapiens (Human), UniProt P07814)
# Assay: PRS enzyme activity inhibition experiment ([3H]proline, liquid scintillation)
# Assay type: biochemical
# Conditions: purified PRS protein, 37° C. for 5 to 10 minutes
# Method in brief: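 Values are % inhibition or IC50 ranges (A ≤100 nM, B 100–500 nM, C ≥500 nM) from [3H]proline incorporation measured by liquid scintillation. PRS portion of human EPRS, reacted 5–10 min at 37 °C in pH 7.4 phosphate buffer containing 5 mM ATP and tRNA, compound at 1 μM.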
# Sequence of PRS (prolyl-tRNA synthetase) protein, PRS portion of EPRS (P07814 1007-1512): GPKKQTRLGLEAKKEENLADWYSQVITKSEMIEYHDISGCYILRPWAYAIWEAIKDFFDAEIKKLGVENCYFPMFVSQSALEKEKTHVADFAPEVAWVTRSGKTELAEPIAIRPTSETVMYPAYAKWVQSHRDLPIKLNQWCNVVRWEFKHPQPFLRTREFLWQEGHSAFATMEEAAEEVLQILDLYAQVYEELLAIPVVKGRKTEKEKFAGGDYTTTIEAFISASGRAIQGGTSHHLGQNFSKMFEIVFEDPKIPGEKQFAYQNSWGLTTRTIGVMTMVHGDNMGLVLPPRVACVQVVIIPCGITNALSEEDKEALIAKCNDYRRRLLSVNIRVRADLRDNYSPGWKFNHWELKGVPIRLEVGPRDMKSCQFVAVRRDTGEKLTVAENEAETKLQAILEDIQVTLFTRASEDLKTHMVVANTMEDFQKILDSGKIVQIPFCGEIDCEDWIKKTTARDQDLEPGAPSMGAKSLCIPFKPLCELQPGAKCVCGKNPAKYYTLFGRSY
row,SMILES,IC50 [nM]
1,"COC(=O)c1cc(-c2cc(Cl)cc3ncn(CCC[C@H]4NCCC[C@@H]4O)c23)cs1 [Example 111, methyl 4-(5-chloro-1-(3-((2R,3S)-3-hydroxypiperidin-2-yl)propyl)-1H-benzo[d]imidazol-7-yl)thiophene-2-carboxylate]",≤ 100
2,"O[C@H]1CCCN[C@@H]1CCCn1cnc2cc(Cl)cc(-c3cnn(CCF)c3)c21 [Example 112, (2R,3S)-2-(3-(5-chloro-7-(1-(2-fluoroethyl)-1H-pyrazol-4-yl)-1H-benzo[d]imidazol-1-yl)propyl)piperidin-3-ol]",100 to 500
3,"CCCCn1cc(-c2cc(Cl)cc3ncn(CCC[C@H]4NCCC[C@@H]4O)c23)cn1 [Example 113, (2R,3S)-2-(3-(7-(1-butyl-1H-pyrazol-4-yl)-5-chloro-1H-benzo[d]imidazol-1-yl)propyl)piperidin-3-ol]",100 to 500
4,"Cc1cc(-c2cc(Cl)cc3ncn(CCC[C@H]4NCCC[C@@H]4O)c23)c(C)s1 [Example 114, (2R,3S)-2-(3-(5-chloro-7-(2,5-dimethylthiophen-3-yl)-1H-benzo[d]imidazol-1-yl)propyl)piperidin-3-ol]",100 to 500
5,"CC(C)Cn1cc(-c2cc(Cl)cc3ncn(CCC[C@H]4NCCC[C@@H]4O)c23)cn1 [Example 115, (2R,3S)-2-(3-(5-chloro-7-(1-isobutyl-1H-pyrazol-4-yl)-1H-benzo[d]imidazol-1-yl)propyl)piperidin-3-ol]",100 to 500
6,"CCOC(=O)c1cc(-c2cc(Cl)cc3ncn(CCC[C@H]4NCCC[C@@H]4O)c23)cn1C [Example 116, ethyl 4-(5-chloro-1-(3-((2R,3S)-3-hydroxypiperidin-2-yl)propyl)-1H-benzo[d]imidazol-7-yl)-1-methyl-1H-pyrrole-2-carboxylate]",≤ 100
7,"O[C@H]1CCCN[C@@H]1CCCn1cnc2nc(Cl)ccc21 [Example 117, (2R,3S)-2-(3-(5-chloro-1H-imidazo[4,5-b]pyridin-1-yl)propyl)piperidin-3-ol]",100 to 500
8,"O[C@H]1CCCN[C@@H]1CCCn1cnc2ccc(Cl)nc21 [Example 118, (2R,3S)-2-(3-(5-chloro-3H-imidazo[4,5-b]pyridin-3-yl)propyl)piperidin-3-ol]",≥ 500
9,"O[C@H]1CCCN[C@@H]1CCCn1cnc2nc(Br)ccc21 [Example 119, (2R,3S)-2-(3-(5-bromo-1H-imidazo[4,5-b]pyridin-1-yl)propyl)piperidin-3-ol]",≥ 500
10,"O[C@H]1CCCN[C@@H]1CCCn1cnc2ncc(Br)cc21 [Example 120, (2R,3S)-2-(3-(6-bromo-1H-imidazo[4,5-b]pyridin-1-yl)propyl)piperidin-3-ol]",≥ 500
11,"Cc1ccc2c(ncn2CCC[C@H]2NCCC[C@@H]2O)n1 [Example 121, (2R,3S)-2-(3-(5-methyl-1H-imidazo[4,5-b]pyridin-1-yl)propyl)piperidin-3-ol]",100 to 500
12,"O[C@H]1CCCN[C@@H]1CCCn1cnc2cnc(Cl)cc21 [Example 122, (2R,3S)-2-(3-(6-chloro-1H-imidazo[4,5-c]pyridin-1-yl)propyl)piperidin-3-ol]",100 to 500
13,"O[C@H]1CCCN[C@@H]1CCCn1cnc2cc(Cl)ncc21 [Example 123, (2R,3S)-2-(3-(6-chloro-3H-imidazo[4,5-c]pyridin-3-yl)propyl)piperidin-3-ol]",≥ 500
14,"O[C@H]1CCCN[C@@H]1CCCn1cnc2cnc(Br)cc21 [Example 124, (2R,3S)-2-(3-(6-bromo-1H-imidazo[4,5-c]pyridin-1-yl)propyl)piperidin-3-ol]",≥ 500
15,"O[C@H]1CCCN[C@@H]1CCCn1cnc2cc(Br)ncc21 [Example 125, (2R,3S)-2-(3-(6-bromo-3H-imidazo[4,5-c]pyridin-3-yl)propyl)piperidin-3-ol]",≥ 500
16,"O[C@H]1CCCN[C@@H]1CCCn1cnc2nccc(Cl)c21 [Example 126, (2R,3S)-2-(3-(7-chloro-1H-imidazo[4,5-b]pyridin-1-yl)propyl)piperidin-3-ol]",100 to 500
17,"O[C@H]1CCCN[C@@H]1CCCn1cnc2nc(Cl)c(Cl)cc21 [Example 127, (2R,3S)-2-(3-(5,6-dichloro-1H-imidazo[4,5-b]pyridin-1-yl)propyl)piperidin-3-ol]",100 to 500
18,"O[C@H]1CCCN[C@@H]1CCCn1cnc2cncc(Br)c21 [Example 128, (2R,3S)-2-(3-(7-bromo-1H-imidazo[4,5-c]pyridin-1-yl)propyl)piperidin-3-ol]",≥ 500
19,"O[C@H]1CCCN[C@@H]1CCCn1cnc2ccc(C(F)(F)F)nc21 [Example 129, (2R,3S)-2-(3-(5-(trifluoromethyl)-3H-imidazo[4,5-b]pyridin-3-yl)propyl)piperidin-3-ol]",≥ 500
20,"O[C@H]1CCCN[C@@H]1CCCn1cnc2c(Cl)c(Cl)cnc21 [Example 130, (2R,3S)-2-(3-(6,7-dichloro-3H-imidazo[4,5-b]pyridin-3-yl)propyl)piperidin-3-ol]",100 to 500
21,"Cc1c(Cl)cnc2c1ncn2CCC[C@H]1NCCC[C@@H]1O [Example 131, (2R,3S)-2-(3-(6-chloro-7-methyl-3H-imidazo[4,5-b]pyridin-3-yl)propyl)piperidin-3-ol]",100 to 500

row,SMILES,IC50 [nM]
1,"Cc1c(Br)cnc2c1ncn2CCC[C@H]1NCCC[C@@H]1O [Example 132, (2R,3S)-2-(3-(6-bromo-7-methyl-3H-imidazo[4,5-b]pyridin-3-yl)propyl)piperidin-3-ol]",100 to 500
2,"O[C@H]1CCCN[C@@H]1CCCn1cnc2c(Cl)c(Br)cnc21 [Example 133, (2R,3S)-2-(3-(6-bromo-7-chloro-3H-imidazo[4,5-b]pyridin-3-yl)propyl)piperidin-3-ol]",≥ 500
3,"O[C@H]1CCCN[C@@H]1CCCn1cnc2c(Cl)c(-c3cccc(Cl)c3)cnc21 [Example 134, (2R,3S)-2-(3-(7-chloro-6-(3-chlorophenyl)-3H-imidazo[4,5-b]pyridin-3-yl)propyl)piperidin-3-ol]",≥ 500
4,"O[C@H]1CCCN[C@@H]1CCCn1cnc2nc(Cl)ncc21 [Example 135, (2R,3S)-2-(3-(2-chloro-7H-purin-7-yl)propyl)piperidin-3-ol]",≥ 500
5,"O[C@H]1CCCN[C@@H]1CCCn1cnc2cnc(Cl)nc21 [Example 136, (2R,3S)-2-(3-(2-chloro-9H-purin-9-yl)propyl)piperidin-3-ol]",≥ 500
6,"CN(C)c1ncnc2c1ncn2CCC[C@H]1NCCC[C@@H]1O [Example 137, (2R,3S)-2-(3-(6-(dimethylamino)-9H-purin-9-yl)propyl)piperidin-3-ol]",≥ 500
7,"CCN(CC)c1ncnc2c1ncn2CCC[C@H]1NCCC[C@@H]1O [Example 138, (2R,3S)-2-(3-(6-(diethylamino)-9H-purin-9-yl)propyl)piperidin-3-ol]",≥ 500
8,"CCN(C)c1ncnc2c1ncn2CCC[C@H]1NCCC[C@@H]1O [Example 139, (2R,3S)-2-(3-(6-(ethyl(methyl)amino)-9H-purin-9-yl)propyl)piperidin-3-ol]",≥ 500
9,"O[C@H]1CCCN[C@@H]1CCCn1cnc2c(N3CCOCC3)ncnc21 [Example 140, (2R,3S)-2-(3-(6-morpholino-9H-purin-9-yl)propyl)piperidin-3-ol]",≥ 500
10,"O[C@H]1CCCN[C@@H]1CCCn1cnc2c(N3CCCCC3)ncnc21 [Example 141, (2R,3S)-2-(3-(6-(piperidin-1-yl)-9H-purin-9-yl)propyl)piperidin-3-ol]",≥ 500
11,"O[C@H]1CCCN[C@@H]1CCCn1cnc2c(N3CCCC3)ncnc21 [Example 142, (2R,3S)-2-(3-(6-(pyrrolidin-1-yl)-9H-purin-9-yl)propyl)piperidin-3-ol]",≥ 500
12,"Oc1nc2ccccc2n1CCC[C@H]1NCCC[C@@H]1O [Example 143, 1-(3-((2R,3S)-3-hydroxypiperidin-2-yl)propyl)-1H-benzo[d]imidazol-2-ol]",≥ 500
13,"Oc1nc2cc(Cl)c(Cl)cc2n1CCC[C@H]1NCCC[C@@H]1O [Example 144, 5,6-dichloro-1-(3-((2R,3S)-3-hydroxypiperidin-2-yl)propyl)-1H-benzo[d]imidazol-2-ol]",≥ 500
14,"OCc1nc2ccccc2n1CCC[C@H]1NCCC[C@@H]1O [Example 145, (2R,3S)-2-(3-(2-(hydroxymethyl)-1H-benzo[d]imidazol-1-yl)propyl)piperidin-3-ol]",≥ 500
15,"Cc1ccc2c(nc(CO)n2CCC[C@H]2NCCC[C@@H]2O)c1C [Example 146, (2R,3S)-2-(3-(2-(hydroxymethyl)-4,5-dimethyl-1H-benzo[d]imidazol-1-yl)propyl)piperidin-3-ol]",≥ 500
16,"OCc1nc2cc(Cl)c(Cl)cc2n1CCC[C@H]1NCCC[C@@H]1O [Example 147, (2R,3S)-2-(3-(5,6-dichloro-2-(hydroxymethyl)-1H-benzo[d]imidazol-1-yl)propyl)piperidin-3-ol]",≥ 500
17,"Nc1nc2cc(Cl)c(Cl)cc2n1CCC[C@H]1NCCC[C@@H]1O [Example 148, (2R,3S)-2-(3-(2-amino-5,6-dichloro-1H-benzo[d]imidazol-1-yl)propyl)piperidin-3-ol]",100 to 500
18,"COC(=O)c1cn(CCC[C@H]2NCCC[C@@H]2O)c2c(Br)cccc12 [Example 149, methyl 7-bromo-1-(3-((2R,3S)-3-hydroxypiperidin-2-yl)propyl)-1H-indole-3-carboxylate]",100 to 500
19,"COC(=O)c1cn(CCC[C@H]2NCCC[C@@H]2O)c2ccc(Br)cc12 [Example 150, methyl 5-bromo-1-(3-((2R,3S)-3-hydroxypiperidin-2-yl)propyl)-1H-indole-3-carboxylate]",≥ 500
20,"COC(=O)c1cn(CCC[C@H]2NCCC[C@@H]2O)c2cc(Br)ccc12 [Example 151, methyl 6-bromo-1-(3-((2R,3S)-3-hydroxypiperidin-2-yl)propyl)-1H-indole-3-carboxylate]",100 to 500
21,"COC(=O)c1cn(CCC[C@H]2NCCC[C@@H]2O)c2cccc(Cl)c12 [Example 152, methyl 4-chloro-1-(3-((2R,3S)-3-hydroxypiperidin-2-yl)propyl)-1H-indole-3-carboxylate]",≥ 500

# Reference: patent US10981917B2, “Heterocyclic compound, its preparation method, and pharmaceutical composition comprising the same” (Daewoong Pharmaceutical Co., Ltd., priority 2017, dated 2021)
